Test results reported in patent publication US20190292605A1, “Biomarkers of Response to Cyclin D-CDK4/6 Targeted Therapies in Cancer” (The Regents of the University of California, priority 2014, published 2019).
Where two headings read alike, the source gives them in different places.

Columns and labels:
[1] = tested on: human melanoma cell lines; assay: response to palbociclib treatment in 48 melanoma cell lines; type: cell-based
Excerpt: Melanoma, a malignancy originating in pigment-producing melanocytes, is generally resistant to conventional treatments such as radiotherapy or chemotherapy. Molecular targeted therapeutics against BRAF and MEK have shown marked efficacy for patients with metastatic melanoma. However these targeted therapies have a limited duration of response. […] Our main goal in this study was to evaluate the therapeutic potential of palbociclib in a large panel of human melanoma cell lines to identify potential biomarkers of sensitivity and resistance. Material and Methods: We evaluated the response palbociclib treatment in 48 melanoma cell lines. A comprehensive biomarker screen was performed using mutation and gene expression (Agilent) data. The mechanism of action of the drug, phospho-Rb and senescence, was investigated by western blot (WB) analysis. Effects on the cell cycle and apoptosis were study by flow cytometry.

[2] = tested on: 17 gastric and 27 colon cancer cell lines; assay: dose response in gastric and colon cancer cell line panels; type: cell-based; settings: Homo sapiens; 14 of the 44 gastric and colon cancer cell lines tested; read-out: anti-proliferative activity (concentration)
Experimental: Methods: Panels of 17 gastric and 27 colon cancer cell lines were exposed in vitro to palbociclib over various concentrations to generate dose response curves. Analysis of variance (ANOVA) was used to identify differentially expressed genes between sensitive and resistant cell lines. Genes identified by ANOVA and effects of palbociclib on pRB were analyzed via western blot.

colon cancer = settings: patients; cited from earlier work

Row | Compound | IC50 ([1]; 48 melanoma cell lines, read-out: IC50, lower end of range across melanoma cell lines) [µM] | IC50 ([1]; 48 melanoma cell lines, read-out: IC50, upper end of range across melanoma cell lines) [µM] | IC50 ([1]; subset (14/48) of melanoma cell lines, clinically achievable concentrations, read-out: IC50 of cell lines classified as sensitive) [µM] | IC50 [2] [µM] | clinical benefit (colon cancer)
1 | CC(=O)c1c(C)c2cnc(Nc3ccc(N4CCNCC4)cn3)nc2n(C2CCCC2)c1=O [palbociclib] | 0.028 | > 1 | < 0.15 | < 0.15 | –
2 | CCN1CCN(Cc2ccc(Nc3ncc(F)c(-c4cc(F)c5nc(C)n(C(C)C)c5c4)n3)nc2)CC1 [LY2835219] | – | – | – | – | beneficial in colon cancer
